Data from US9006228B2 (Merck Sharp & Dohme Corp., priority 2011, dated 2015).
pEC50: −log10 of the molar value.

Target: T1, human GPR119 (Homo sapiens, UniProt Q8TDV5)
T1 sequence (Q8TDV5 1-308 limits assumed): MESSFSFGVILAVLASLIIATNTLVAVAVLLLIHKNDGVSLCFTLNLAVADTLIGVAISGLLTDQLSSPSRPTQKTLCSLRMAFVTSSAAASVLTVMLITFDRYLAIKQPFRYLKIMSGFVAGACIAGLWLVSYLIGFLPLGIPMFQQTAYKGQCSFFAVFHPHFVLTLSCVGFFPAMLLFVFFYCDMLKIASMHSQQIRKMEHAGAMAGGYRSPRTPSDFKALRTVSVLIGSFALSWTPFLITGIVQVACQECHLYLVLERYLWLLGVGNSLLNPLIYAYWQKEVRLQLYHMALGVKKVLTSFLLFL
Experiment: Measurement of GPR119 signaling (cAMP assay; LANCE kit or HTRF) in HEK293 cells stably transfected with human GPR119
Type: cell-based
Conditions: agonist-stimulated cAMP in HEK293 cells expressing human GPR119
How it was run: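 LANCE method: cAMP detected with Eu-chelate/biotin-cAMP tracer, 3 h, read at 665 nm, converted via cAMP standards; basal from DMSO, maximum from internal agonist, 4-parameter fit.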

pEC50 | SMILES
7.94 | COCc1noc(N2CCC([C@H]3C[C@H]3COCc3ccc(CC(=O)N4CCC4)c(F)c3)CC2)n1 [Example 144, 1-(azetidin-1-yl)-2-(2-fluoro-4-((((1R,2R)-2-(1-(3-(methoxymethyl)-1,2,4-oxadiazol-5-yl)piperidin-4-yl)cyclopropyl)methoxy)methyl)phenyl)ethanone]
8.99 | COC(C)c1cnc(N2CCC([C@H]3C[C@H]3COCc3ccc(S(C)(=O)=O)c(F)c3)CC2)nc1 (single isomer, unassigned) [Example 131]
8.96 | CCc1cnc(N2CCC([C@H]3C[C@H]3COCc3ccc(-c4cccnn4)cc3)CC2)nc1 [Example 122]
8.89 | CCCc1cnc(N2CCC([C@H]3C[C@H]3COCc3ccc(S(=O)(=O)CCO)cc3F)CC2)nc1 [Example 84]
7.69 | CC(C)OC(=O)N1CCC([C@H]2C[C@H]2COCc2cc(F)c(S(C)(=O)=O)c(F)c2)CC1 [Example 50, isopropyl 4-[(1R,2R)-2-({[3,5-difluoro-4-(methylsulfonyl)benzyl]oxy}methyl)cyclopropyl] piperidine-1-carboxylate]
10.00 | CCS(=O)(=O)c1ccc(COC[C@@H]2C[C@@H]2C2CCN(C(=O)OC(C)(C)C)CC2)cc1F [Example 34, tert-butyl 4-[(1R,2R)-2-({[4-(ethylsulfonyl)-3-fluorobenzyl]oxy}methyl)cyclopropyl]piperidine-1-carboxylate]
8.72 | CCc1cnc(N2CCC([C@H]3C[C@H]3COCc3ccc(-c4ccnnc4)cc3)CC2)nc1 [Example 121]
8.14 | CC(O)CS(=O)(=O)c1ccc(COC[C@@H]2C[C@@H]2C2CCN(c3cnc(Cl)cn3)CC2)c(F)c1 (stereo partly drawn) [Example 98, 1-({4-[({(1R,2R)-2-[1-(5-chloropyrazin-2-yl)piperidin-4-yl]cyclopropyl}methoxy)methyl]-3-fluorophenyl}sulfonyl)propan-2-ol]
8.49 | CS(=O)(=O)c1ccc(COC[C@@H]2C[C@@H]2C2CCN(C(=O)OCC3CC3)CC2)cc1 [Example 13, cyclopropylmethyl 4-[(1R,2R)-2-({[4-(methylsulfonyl)benzyl]oxy}methyl)cyclopropyl]piperidine-1-carboxylate]
8.62 | CC(C)(C)OC(=O)N1CCC([C@H]2C[C@H]2COCc2cc(F)c(C(=O)C3CC3)c(F)c2)CC1 [Example 52, tert-butyl 4-[(1R,2R)-2-({[4-(cyclopropylcarbonyl)-3,5-difluorobenzyl]oxy}methyl)cyclopropyl]piperidine-1-carboxylate]
8.41 | CC1(OC(=O)N2CCC([C@H]3C[C@H]3COCc3ccc(S(C)(=O)=O)cc3)CC2)CC1 [Example 11, 1-methylcyclopropyl 4-[(1R,2R)-2-({[4-(methylsulfonyl)benzyl]oxy}methyl)cyclopropyl]piperidine-1-carboxylate]
8.55 | CCS(=O)(=O)c1ccc(COC[C@@H]2C[C@@H]2C2CCN(c3ncc(COC)cn3)CC2)c(F)c1 [Example 127, 2-(4-((1R,2R)-2-(((4-(ethylsulfonyl)-2-fluorobenzyl)oxy)methyl)cyclopropyl)piperidin-1-yl)-5-(methoxymethyl)pyrimidine]
9.44 | COC(C)c1cnc(N2CCC([C@H]3C[C@H]3COCc3ccc(S(C)(=O)=O)cc3F)CC2)nc1 (single isomer, unassigned) [Example 125]
9.02 | COC1CN(C(=O)Cc2ccc(COC[C@@H]3C[C@@H]3C3CCN(c4nc(C(C)C)no4)CC3)cc2F)C1 [Example 142, 2-(2-fluoro-4-((((1R,2R)-2-(1-(3-isopropyl-1,2,4-oxadiazol-5-yl)piperidin-4-yl)cyclopropyl)methoxy)methyl)phenyl)-1-(3-methoxyazetidin-1-yl)ethanone]
9.10 | CCc1cnc(N2CCC([C@H]3C[C@H]3COCc3ccc(-c4ccc(OC)nn4)cc3F)CC2)nc1 [Example 101, 3-{4-[({(1R,2R)-2-[1-(5-ethylpyrimidin-2-yl)piperidin-4-yl]cyclopropyl}methoxy)methyl]-3-fluorophenyl}-6-methoxypyridazine]
9.40 | CCS(=O)(=O)c1ccc(COC[C@@H]2C[C@@H]2C2CCN(c3nc(C(C)C)no3)CC2)cc1F [Example 38, 4-[(1R,2R)-2-({[3-fluoro-4-(ethylsulfonyl)benzyl]oxy}methyl)cyclopropyl]-1-(3-isopropyl-1,2,4-oxadiazol-5-yl)piperidine]

pEC50 | SMILES
8.45 | COCc1cnc(N2CCC([C@H]3C[C@H]3COCc3ccc(CC(=O)N4CC(F)C4)cc3F)CC2)nc1 [Example 148, 2-(3-fluoro-4-((((1R,2R)-2-(1-(5-(methoxymethyl)pyrimidin-2-yl)piperidin-4-yl)cyclopropyl)methoxy)methyl)phenyl)-1-(3-fluoroazetidin-1-yl)ethanone]
9.00 | O=C(c1c(F)cc(COC[C@@H]2C[C@@H]2C2CCN(c3ncc(Cl)cn3)CC2)cc1F)C1CC1 [Example 53]
9.22 | CS(=O)(=O)c1c(F)cc(COC[C@@H]2C[C@@H]2C2CCN(c3ncc(C4CC4)cn3)CC2)cc1F [Example 48, 5-cyclopropyl-2-{4-[(1R,2R)-2-({[3,5-difluoro-4-(methylsulfonyl)benzyl]oxy}methyl)cyclopropyl]piperidin-1-yl}pyrimidine]
9.89 | CC(C)Cc1cnc(N2CCC([C@H]3C[C@H]3COCc3ccc(S(C)(=O)=O)cc3)CC2)nc1 [Example 19, 5-isobutyl-2-{4-[(1R,2R)-2-({[4-(methylsulfonyl)benzyl]oxy}methyl)cyclopropyl]piperidin-1-yl}pyrimidine]
9.00 | CCc1cnc(N2CCC([C@H]3C[C@H]3COCc3ccc(-c4ccc(C)nn4)cc3F)CC2)nc1 [Example 100, 3-{4-[({(1R,2R)-2-[1-(5-ethylpyrimidin-2-yl)piperidin-4-yl]cyclopropyl}methoxy)methyl]-3-fluorophenyl}-6-methylpyridazine]
7.97 | CCc1cnc(N2CCC([C@H]3C[C@H]3COCc3ccc(-c4ccnc(N)n4)cc3F)CC2)nc1 [Example 105, 4-{4-[({(1R,2R)-2-[1-(5-ethylpyrimidin-2-yl)piperidin-4-yl]cyclopropyl}methoxy)methyl]-3-fluorophenyl}pyrimidin-2-amine]
8.72 | CCc1noc(N2CCC([C@H]3C[C@H]3COCc3ccc(S(C)(=O)=O)c(F)c3)CC2)n1 [Example 36, 1-(3-ethyl-1,2,4-oxadiazol-5-yl)-4-[(1R,2R)-2-({[3-fluoro-4-(methylsulfonyl)benzyl]oxy}methyl)cyclopropyl]piperidine]
7.81 | CS(=O)(=O)c1ccc(COC[C@@H]2C[C@@H]2C2CCN(c3ncc(-c4cn[nH]c4)cn3)CC2)nc1 [Example 7]
8.70 | CCc1cnc(N2CCC([C@H]3C[C@H]3COCc3ccc(-c4nccnc4N)cc3F)CC2)nc1 [Example 107, 2-{4-[({(1R,2R)-2-[1-(5-ethylpyrimidin-2-yl)piperidin-4-yl]cyclopropyl}methoxy)methyl]-3-fluorophenyl}pyrazin-2-amine]
7.80 | CCCOC(=O)N1CCC([C@H]2C[C@H]2COCc2ccc(S(C)(=O)=O)cc2)CC1 [Example 8, propyl 4-[(1R,2R)-2-({[4-(methylsulfonyl)benzyl]oxy}methyl)cyclopropyl]piperidine-1-carboxylate]
8.52 | CCc1cnc(N2CCC([C@H]3C[C@H]3COCc3ccc(-c4cccnn4)c(F)c3)CC2)nc1 [Example 114, 3-{4-[({(1R,2R)-2-[1-(5-ethylpyrimidin-2-yl)piperidin-4-yl]cyclopropyl}methoxy)methyl]-2-fluorophenyl}pyridazine]
9.70 | CCc1cnc(N2CCC([C@H]3C[C@H]3COCc3ccc(S(C)(=O)=O)c(F)c3)CC2)nc1 [Example 40, 5-ethyl-2-{4-[(1R,2R)-2-({[3-fluoro-4-(methylsulfonyl)benzyl]oxy}methyl)cyclopropyl]piperidin-1-yl}pyrimidine]
8.09 | CC(C)COC(=O)N1CCC([C@H]2C[C@H]2COCc2ccc(S(C)(=O)=O)cc2)CC1 [Example 10, isobutyl 4-[(1R,2R)-2-({[4-(methylsulfonyl)benzyl]oxy}methyl)cyclopropyl]piperidine-1-carboxylate]
7.70 | COC(=O)c1cnc(N2CCC([C@H]3C[C@H]3COCc3ccc(S(C)(=O)=O)cc3)CC2)nc1 [Example 17, methyl 2-{4-[(1R,2R)-2-({[4-(methylsulfonyl)benzyl]oxy}methyl)cyclopropyl]piperidin-1-yl}pyrimidine-5-carboxylate]
8.52 | CCc1cnc(N2CCC([C@H]3C[C@H]3COCc3ccc(-c4ccncn4)c(F)c3)CC2)nc1 [Example 112, 4-{4-[({(1R,2R)-2-[1-(5-ethylpyrimidin-2-yl)piperidin-4-yl]cyclopropyl}methoxy)methyl]-2-fluorophenyl}pyrimidine]

SMILES | pEC50
CC(=O)CSc1ccc(COC[C@@H]2C[C@@H]2C2CCN(C(=O)OC(C)(C)C)CC2)cc1 [Example 91] | 7.83
COCc1cnc(N2CCC([C@H]3C[C@H]3COCc3cc(F)c(S(C)(=O)=O)c(F)c3)CC2)nc1 [Example 128, 2-(4-((1R,2R)-2-(((3,5-difluoro-4-(methylsulfonyl)benzyl)oxy)methyl)cyclopropyl)piperidin-1-yl)-5-(methoxymethyl)pyrimidine] | 8.35
